Test results from patent US6211158A, “Desazapurine-nucleotide derivatives, processes for the preparation thereof, pharmaceutical compositions containing them and the use thereof for nucleic acid sequencing and as antiviral agents” (Roche Diagnostics GmbH, priority 1987, dated 2001).

Columns and labels:
[1] = Stability of the N-glycosidic bond under acidic conditions, UV-absorbance as a function of time (Example 30); type: physicochemical; parameters: key to stability towards hydrolysis (classified): classified as stable, when no hydrolysis occurred within the hydrolysis time of the corresponding purine-derivatives; conditions: for half-life: read-out: half life [t(1/2)] of hydrolysis
Experimental: The determination of the stability of the N-glycosidic bond was carried out under acidic conditions by measuring the UV-absorbance as a function of time. The compounds were classified as stable, when no hydrolysis occurred within the hydrolysis time of the corresponding purine-derivatives.
Table of kinetic data with respect to hydrolysis of […]

[2] = Hydrolysis of the N-glycosidic bond in hydrochloric acid at 25° C., UV absorption at 258 nm (Example 29); type: physicochemical; conditions: for half-life: read-out: half life time T/2 of hydrolysis
Experimental: The stability of the N-glycosidic bond of 2',3'-didesoxynucleosides is bound up with the antiviral activity.
The hydrolysis of the bond was investigated at 25° C. in three different concentrations of hydrochloric acid. For this purpose, the UV absorption (Et) was measured at 258 nm. Via the absorption/time curve, there were determined the velocity constants of the hydrolysis (k) and the half life times (T/2) on the basis of the following equation:
k=1/t×ln(Eo -Eoo)/(Et -Eoo)
Eo being the absorption at time t=0 and Eoo being the absorption after complete termination of the reaction.
There were compared 2',3'-dideoxyadenosine (a) and 6-amino-8-aza-7-deaza-2',3'-dideoxy-9-β-D-ribofuranosylpurine (b) at 25° C.

Compound | stability towards hydrolysis (classified) ([1]; 0.01 N HCl) | stability towards hydrolysis (classified) ([1]; 0.1 N HCl) | stability towards hydrolysis (classified) ([1]; 1 N HCl) | half-life ([1]; 0.01 n hcl) | further results
Nc1nccc2c1ccn2[C@H]1CC[C@@H](CO)O1 [c^3 c^7 ddA, 6-amino-3,7-dideaza-2',3'-dideoxy-9-β-D-ribofuranosylpurine] | stable | stable | stable |  | 
Nc1ncnc2c1ccn2[C@H]1CC[C@@H](CO)O1 [c^7 ddA, 4-Amino-7-(2',3'-dideoxy-β-D-glyceropentofuranosyl)-7H-pyrrolo[2,3-d]pyrimidine] | stable | stable | stable |  | 
Nc1nc2c(ccn2[C@H]2CC[C@@H](CO)O2)c(=O)[nH]1 [c^7 ddG, 2-Amino-7-deaza-2',3'-dideoxy-9-β-D-ribofuranosylpurine-6-one] | stable | stable | stable |  | 
Nc1ncnc2c1cnn2[C@H]1CC[C@@H](CO)O1 [c^7 z^8 ddA, 6-Amino-8-aza-7-deaza-2',3'-dideoxy-9-β-D-ribofuranosylpurine] |  |  |  | 280 min | velocity constant of the hydrolysis k ([2]; 0.01 N HCl): 0.0025 min⁻¹; half-life ([2]; 0.01 N HCl): 280 min; half-life ([2]; 0.1 N HCl): 20.4 min; half-life ([2]; 1 N HCl): 0.83 min; times more stable than (a) ([2]; compared with 2',3'-dideoxyadenosine (a), HCl): more than 10 times; half-life ([1]; 0.1 n hcl): 20.4 min

Further lines, with some results ahead:

stability towards hydrolysis (classified) ([1]; 0.01 N HCl) | stability towards hydrolysis (classified) ([1]; 0.1 N HCl) | stability towards hydrolysis (classified) ([1]; 1 N HCl) | half-life ([1]; 0.01 n hcl) | Compound | further results
 |  |  | 135 min | Nc1nc2c(cnn2[C@H]2CC[C@@H](CO)O2)c(=O)[nH]1 [c^7 z^8 ddG, 2-Amino-(2',3'-dideoxy-β-D-glyceropentofuranosyl)-1H-pyrazolo[3,4-d]pyrimidin-4-one] | 
 |  |  | 31.5 min | Nc1ncnc2c1ncn2[C@H]1CC[C@@H](CO)O1 [ddA, 2',3'-dideoxyadenosine, reference compound] | velocity constant of the hydrolysis k ([2]; 0.01 N HCl): 0.022 min⁻¹; half-life ([2]; 0.01 N HCl): 31.5 min; half-life ([2]; 0.1 N HCl): 1.9 min; half-life ([1]; 0.1 n hcl): 1.9 min
 |  |  | 37 min | Nc1nc2c(ncn2[C@H]2CC[C@@H](CO)O2)c(=O)[nH]1 [ddG, reference compound] | 
